# Literature values as cited in US20160051475A1, “Sustained Release Composition Comprising an Amine as Active Agent and a Salt of a Cyclic Organic Acid” (Upsher-Smith Laboratories, Inc., priority 2010, published 2016).
structure (smiles),measurement,value
CC(=O)Nc1ccc(O)cc1 [acetaminophen],pKa,9.7
